“And” between values parts separate entries of the source, which are not always exact repeats. Equal values may be shown once. “Also recorded” adds a separate entry of the source.
How the values were obtained:
[1] = system: cultured neuronal network; experiment: Spiking activity of cultured cortical neuronal network on multi-electrode array (MEA); assay type: cell-based, rat; conditions: 5 μM bicuculin, 10 μM DNQX or 20 μM APV added to the culture
Experimental: Cortical neurons were obtained from newborn rats within 24 hours from birth, following standard harvesting procedures (Culturing nerve cells, 2nd edition, Gary Ranker and Kimberly Goslin, 1998). The cortex tissue was digested enzymatically and mechanically dissociated and the neurons were plated directly onto substrate-integrated multi-electrode array (MEA) dishes prepared as described below. The cultures were bathed in MEM which was supplemented with heat-inactivated horse serum (5%), Glutamine (0.5 mM), Glucose (20 mM), and Gentamycin (10 μg/ml), and maintained in a tissue culture incubator at 37° C., 5% CO2 and 95% during the recording phases. Half of the medium was exchanged twice a week and the experiments were performed during the third week following plating, thus allowing complete maturation of the neurons (FIGS. 1a-b).
Arrays of 60 Ti/Au/TiN electrodes, 30 μm in diameter, spaced 200 μm from each other (MultiChannelSystems (MCS), Reutlingen, Germany) were utilized in the present study. The insulation layer (silicon nitride), was pretreated with poly-L-lysine forming a good surface for network development. A commercial 60-channel amplifier (B-MEA-1060, MCS, Reutlingen, Germany) with frequency limit range of 10-3000 Hz and a gain of ×1024 was utilized for signal amplification. The amplifier was connected to MCPPlus filter amplifiers (Alpha Omega, Nazareth, Israel) for further amplification (×10 to ×20). Stimulation through the MEA was performed using a dedicated 8-channel stimulus generator (MCS, Reutlingen, Germany).
In addition, the micro-incubation environment was arranged to support long-term recordings from MEA dishes. This was achieved by streaming a filtered, heated and humidified air/CO2 (95/5%) gas mixture, and by electrically heating the MEA platform to 37° C. Data is digitized using two 5200a/526 A/D boards (Microstar Laboratories, WA, USA).
Following electrical functionality determination, the neuronal network cultures were incubated with various electrical conduction blockers.

[2] = system: cardiomyocytes co-cultured with fibroblasts (NIH 3T3) transfected with voltage gated potassium channel Kv1.3; experiment: Spontaneous activity rate of cardiomyocyte cultures and fibroblast co-cultures on MEA under CTX; assay type: cell-based, rat
Experimental: (§1) Monolayer cultures of neonatal rat ventricular cardiomyocytes (NRVM) were prepared as previously described (Rubin et al, 1995), with some modifications. The cultures were maintained in a humidified incubator under a controlled environment of 5% CO2+95% air at 37° C.; fresh medium was replaced on alternating days.
(§2) Fibroblasts from the NIH 3T3 cell line were transfected with an expression cassette which included a mutant voltage gated potassium channel (Kv1.3) coding sequence (GeneBank Accession number H18261) placed under the transcription control of a constitutive promoter using standard procedures. Fibroblast cultures not transfected with the channel coding sequence were produced from the NIH 3T3 cell-line.
(§3) Once well synchronous spontaneous activity was established in the cardiomyocyte cultures, fibroblasts transfected with the Kv1.3 channel coding sequence or non-transfected fibroblasts were added to the cultures. Two different methods where used to seed the fibroblasts. In the first method, the fibroblast were suspended in trypsin for 5 minutes following which they were seeded in a diffuse pattern in the cardiomyocytic cultures (FIG. 4a). In the second method, the fibroblasts where pipetted up and down through a 5 ml pipette for 2 minutes and seeded in the cardiomyocytic cultures thus were forming clusters of fibroblasts (FIG. 4b).
(§4) Extracellular recordings from cultured cardiomyocytes were performed on a PC-based Microelectrode Data Acquisition System (Multi Channel Systems, Reutlingen, Germany), consisting of Multi-Electrode Array (MEA), pre- and filter-amplifiers, data acquisition board, and software. The MEA consists of a 50×50 mm glass substrate, in the center of which is an embedded 0.7×0.7 or 1.4×1.4 mm matrix of 60 Titanium-nitride, gold contacts 10 or 30 μm diameter electrodes insulated with silicone nitride, with inter-electrode distance of 100 or 200 μm (there are no electrodes in the corners of the matrix). Data were recorded at 10-25 KHz with 12-bit precision. During the recording sessions, the MEA (removed from the regular incubator) was constantly perfused with a gas mixture consisting of 5% CO2+95% air. Temperature was kept at 37±0.10° C.
Electrical activity of the cultures was recorded on day one immediately prior to seeding of the fibroblasts and then daily until the cultures died or no spontaneous activity was detected. During the daily measurements the cultures where subjected to increasing concentrations (0.1, 1, 10, 100 nM) of CTX.
Measurement were performed during spontaneous activity from three groups of cardiomyocyte cultures: cultures without fibroblasts, cultures with NIH 3T3 fibroblasts (seeded diffusely) and cultures with transfected NIH 3T3 fibroblasts (expressing the mutant voltage gated potassium channel coding sequence).

[3] = system: neonatal rat (Sprague Dawley) ventricular myocytes; experiment: Spontaneous beating rate of neonatal rat ventricular myocyte/fibroblast co-cultures (MEA), with CTx; assay type: cell-based
Source text: Cell co-culturing—Primary monolayer cultures of neonatal rat (Sprague Dawley) ventricular myocytes were generated as previously described [Nuss H B, Marban E, Johns D C. Overexpression of a human potassium channel suppresses cardiac hyperexcitability in rabbit ventricular myocytes. J Clin Invest. 1999; 103:889-96]. Briefly, following excision, the ventricles were minced and treated with RDB (IIBR, Ness-Ziona, Israel). Following centrifugation, dispersed cells were suspended in culture medium (Ham's F10), 5% fetal calf serum, 5% horse serum, 100 U/ml penicillin, […] streptomycin (all from Biological industries, Beit Haemek, Israel), 1 mM CaCl2 and 50 mg/100 ml bromodeoxyuridine (BrdU, Sigma). The cells were then cultured on gelatin coated (0.1%) microelectrode culture plates at a density of 1.5×10^6 cells/ml.
Once a well synchronous spontaneous activity was established in the cardiomyocyte cultures, fibroblasts (naïve, or Kv1.3 expressing fibroblasts) were seeded in a diffuse manner into the cardiomyocytic cultures. Two groups were studied: The cultures were studied daily, and the electrophysiological properties, essentially the spontaneous beating rate of the culture, was assessed at baseline and following application of the specific Kv1.3 blocker, Charybdotoxin (CTx), at increasing dosages (1, 10, 100 nM). […]

[4] = system: neonatal rat ventricular cardiomyocytes (NRVM); experiment: Synchronous activity, conduction block, conduction velocity and signal amplitude of cardiomyocyte/fibroblast co-cultures on MEA; assay type: cell-based
Experimental: as §1, §2, §3, §4
Recorded data was filtered using cutoff frequency of 2 KHz (Fast et al, 1993). The filtered signal was then differentiated digitally to determine the Local Activation Time (LAT) at each electrode, corresponding to dF/dtmin (where F is the filtered signal) (Dolber and Spach, 1986). Color-coded activation maps were constructed by interpolating the LAT values for the sites between the electrodes, and by extrapolating the LAT values for the 4 corners of the MEA matrix. Activation maps were plotted by means of Matlab standard 2-d plotting function (pcolor) (Matlab 5.3 Mathworks Incorporated©). Conduction velocity was calculated by standard methods (Bayly et al, 1988).
Conduction block quantification is central to evaluating conduction block development in the cell cultures, and to evaluating reversibility of the conduction block following CTX application. A conduction block was determined using the following algorithm: […]
Electrical activity of the cultures was recorded on day one immediately prior to seeding of the fibroblasts and then daily until the cultures died or no spontaneous activity was detected. […]

[5] = system: left ventricular myocardium; experiment: In vivo local ventricular effective refractory period (ERP) after cell grafting, rat model; conditions: for local ventricular ERP at the site of cell transplantation after MTx: study group (Kv1.3 fibroblasts, n=10), mean±SEM (FIG. 19b)
Experimental: Rat model—Male Sprague-Dawley rats weighing 200-250 gr were anesthetized using A Xylasine (0.5 mg/kg) and Ketamine (0.5 mg/kg) preparation [see Example 7]. The animals were then intubated and ventilated using a Harvard small-animal mechanical respirator. The chest wall was opened using a left thoracotomy and the heart was exposed. After removal of the pericardium, a total of 6×10^6 cells (either fibroblasts without transfections in the control group or fibroblast overexpressing the KV1.3 channel in the study group) were transplanted into the anterior aspect of the left ventricular wall using a 28 g needle. In order to prevent graft rejection, all animals were treated with a daily dose of cyclosporin (10 mg/kg) and methyprednisolone (2 mg/kg). The animals underwent a detailed electrophysiological study (see below) immediately before cell grafting and 7 days post-transplantation.
In vivo electrophysiological studies—The electrophysiological study in rats included a standard ventricular pacing protocol to determine the local myocardial effective refractory period (ERP). The ERP was evaluated by applying a train of 20 stimuli at a fixed cycle-length of 200 ms (S1), followed by a single premature stimulus (S2). The S1-S2 coupling interval was gradually shortened. The ERP was determined as the shortest S1-S2 coupling interval still capable of eliciting a ventricular response. Stimuli were generated using a computer controlled STG 1004 stimulus generator with the matching MC-Stim software (both from Multi Channel Systems, Reutlingen, Germany).
The ERP was measured at the site of cell transplantation and at remote sites, both prior to cell transplantation and seven days following cell grafting. In order to dissect the role of the overexpressed channel in altering the local myocardial electrophysiological properties, the ERP was measured also at each site following application of 9 μg/kg of Margatoxin (Alomone Labs, Jerusalem, Israel), a specific Kv 1.3 channel blocker as an intraperitoneal bolus.

[6] = system: right ventricular free wall; experiment: In vivo local ventricular effective refractory period (ERP) after cell grafting, swine model; design: species or system pig; conditions: for ventricular ERP following local application of MTx: swine, sites grafted with transfected fibroblasts, all CLs (FIG. 20b)
Experimental: Swine model—Three domestic pigs (20-30) kg were studied. Anesthesia was induced with 5-10 ml of intravenous sodium pentothal 2.5% solution and maintained with inhaled isoflurane (2%) in oxygen. Following a right thoracotomy, each heart was exposed and a total of 6×10^6 cells were transplanted at a total of 7 different locations in the anterior free wall of the right ventricle. Cells were delivered using a 25 g needle using an injection volume of 250 μl. The sites of cell transplantation were marked with a suture. To prevent graft rejection, the animals were treated with an immunosuppressive regimen (cyclosporine, 10 mg/kg/d and methylprednisolone, 3 mg/kg/d). 7 days following cell transplantation, a second thoracotomy and a detailed epicardial electrophysiological study were performed.
The ERP in the pigs was measured in a similar manner to that in the rats but using slower basic stimulation intervals (CLs of 350, 400 and 500 ms). The ERP was measured at the site of cell transplantation as well as in remote sites and also following local intramyocardial injection of Margatoxin at the examined sites.

`CN1CCc2cc3c(cc2[C@H]1[C@@H]1OC(=O)c2c1ccc1c2OCO1)OCO3` [bicuculin] was tested, and the “spiking activity in cultured neuronal network” value (shortened to “spiking activity”) [1] was “completely abolished”.

For “Charybdotoxin (QFTNVSCTTSKECWSVCQRLHNTSRGKCMNKKCRCYS) [CTX]”, the “increase in spontaneous activity rate” value ([2]; CTX 10 nM, cardiomyocyte cultures or cardiomyocytes co-cultured with untransfected fibroblasts) was “did not increase”, the “increase in spontaneous activity rate” value ([2]; CTX 10 nM, co-cultures which included the Kv1.3 transfected fibroblasts) was 20% and the “increase in spontaneous activity rate” value ([2]; CTX 100 nM, cardiomyocyte cultures or cardiomyocytes co-cultured with untransfected fibroblasts) was “up to 15%”. The “increase in spontaneous activity rate” value ([2]; CTX 100 nM, co-cultures which included the Kv1.3 transfected fibroblasts) was 55%, the “beating frequency after CTx application” value ([3]; control group (naive fibroblasts)) was “did not significantly alter” and the “reversibility of the negative chronotropic effect by CTx” value ([3]; study group (Kv1.3 transfected fibroblasts), CTx 100 nM (FIG. 18b)) was “full reversibility”. For the same compound, the “activation map after CTX” value ([4]; co-culture with non-transfected fibroblasts, five days after seeding, CTX 10 nM (FIG. 12d)) was “no appreciable change”, the “conduction block factor after Charybdotoxin” value ([4]; co-cultures including fibroblasts transfected with Kv1.3, n=10 (FIG. 11)) was “substantially decreased” and the “conduction block factor after Charybdotoxin” value ([4]; co-cultures including non-transfected fibroblasts, n=9 (FIG. 11)) was “minimal response”. The “conduction block after CTX treatment” value ([4]; co-cultures with Kv1.3 transfected fibroblasts, CTX 10 nM (FIG. 7d)) was “reversal; also recorded: reversed” and the “uncoupling effect after CTX treatment” value ([4]; co-cultures with Kv1.3 transfected fibroblasts, CTX 100 nM (FIGS. 6f-g)) was “reversed”.

For `N[C@H](CCCP(=O)(O)O)C(=O)O` [APV, D-2-amino-5-phosphonovalerate], the “spiking activity” value [1] was “completely abolished”.

For “Margatoxin (TIINVKCTSPKQCLPPCKAQFGQSAGAKCMNGKCKCYPH)”, the “local ERP after administration of Mtx” value ([5]; control group grafted with naive fibroblasts (n=8)) was “did not change significantly”, the “ventricular ERP at the site of cell grafting after Margatoxin” value ([5]; one animal grafted with Kv1.3 fibroblasts, basic CL 200 ms (FIG. 19a)) was “reversed and 100 ms” and the “local ventricular ERP at the site of cell transplantation after MTx” value [5] was 117 ± 7.70 ms. For the same compound, the “local ventricular ERP at the site of cell transplantation after MTx” value ([5]; listed as MTx) was 117 ± 8 ms, the “local ERP after local application of MTx” value ([6]; pig grafted with transfected cells, basic CL drive 400 ms (FIG. 20a)) was 220 ms and the “ventricular ERP following local application of MTx” value [6] was “near baseline values”. For the same compound, the “ventricular ERP following local application of MTx” value ([6]; listed as MTx) was “not different from the control sites”.

In the case of `O=[N+]([O-])c1cc2nc(O)c(O)nc2cc1[N+](=O)[O-]` [DNQX], the “spiking activity” value [1] was “completely abolished”.

— US8007779B2, “Nucleic acid constructs and cells, and methods utilizing same for modifying the electrophysiological function of excitable tissues” (GeneGrafts Ltd., priority 2000, dated 2011)
